Measurements: PMC8534050, “Discovery of a Potent and Highly Isoform-Selective Inhibitor of the Neglected Ribosomal Protein S6 Kinase Beta 2 (S6K2)” (Cancers, 2021)

Experiments:
STK39 = molecular target: T1, STK39 (Homo sapiens, UniProt Q9UEW8); experiment: DSF thermal shift assay; type: binding; details: STK39; inhibitor 10 μM, protein 2 μM; read-out: ΔTm
T1 construct: purchased in-house DSF (thermal shift) panel per Fedorov et al; IC50 follow-up at Reaction Biology Corp
Description: (§1) Differences in the melting temperature (ΔTm) were measured as described by Fedorov et al.. Purified proteins were buffered in 25 mM HEPES (pH 7.5), 500 mM NaCl and were assayed in a 384-well plate with a final protein concentration of 2 μM in 10 μL assay volume. Inhibitors were added to a final concentration of 10 μM using an ECHO 550 acoustic dispenser (Labcyte, San José, CA, USA). As a fluorescence probe, SYPRO-Orange (Molecular Probes, Eugene, OR, USA) was added in a 1:5000 dilution. Filters for excitation and emission were set to 465 nm and 590 nm, respectively. The temperature was increased from 25 °C with 3 °C/min to a final temperature of 95 °C, while scanning, using the QuantStudio5 (Applied Biosystems, Waltham, MA, USA). Data were analyzed through Boltzmann equation in the Protein Thermal Shift software (Applied Biosystems, Waltham, MA, USA). Samples were measured in technical duplicates.

WNK1 = molecular target: T2, WNK1 (Homo sapiens, UniProt Q9H4A3); experiment: DSF thermal shift assay; type: binding; details: WNK1; inhibitor 10 μM, protein 2 μM; read-out: ΔTm
T2 construct: purchased in-house DSF (thermal shift) panel per Fedorov et al
Description: as §1

MAPK6 = molecular target: T3, MAPK6 (Homo sapiens, UniProt Q16659); experiment: DSF thermal shift assay; type: binding; details: MAPK6; inhibitor 10 μM, protein 2 μM; read-out: ΔTm
T3 construct: purchased in-house DSF (thermal shift) panel per Fedorov et al
Description: as §1

CAMKK2 = molecular target: T4, CAMKK2 (Homo sapiens, UniProt Q96RR4); experiment: DSF thermal shift assay; type: binding; details: CAMKK2; inhibitor 10 μM, protein 2 μM; read-out: ΔTm
T4 construct: purchased in-house DSF (thermal shift) panel per Fedorov et al
T4 sequence (Q96RR4 whole entry): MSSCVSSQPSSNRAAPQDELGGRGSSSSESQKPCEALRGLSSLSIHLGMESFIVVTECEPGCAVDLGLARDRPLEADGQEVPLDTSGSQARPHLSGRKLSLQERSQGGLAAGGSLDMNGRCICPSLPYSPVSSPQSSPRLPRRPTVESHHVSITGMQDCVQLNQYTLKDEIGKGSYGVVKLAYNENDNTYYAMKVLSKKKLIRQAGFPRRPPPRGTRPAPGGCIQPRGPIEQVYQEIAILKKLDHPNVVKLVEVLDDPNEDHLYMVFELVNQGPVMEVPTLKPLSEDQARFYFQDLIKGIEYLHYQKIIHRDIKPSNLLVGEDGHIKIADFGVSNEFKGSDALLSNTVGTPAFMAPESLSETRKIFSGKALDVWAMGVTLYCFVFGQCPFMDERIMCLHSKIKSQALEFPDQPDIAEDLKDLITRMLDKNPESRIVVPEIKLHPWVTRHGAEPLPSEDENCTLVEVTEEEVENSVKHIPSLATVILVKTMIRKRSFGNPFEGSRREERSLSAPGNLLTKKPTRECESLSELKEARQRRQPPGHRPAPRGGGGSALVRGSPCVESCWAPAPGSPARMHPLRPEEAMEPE
Description: as §1

MAPK13 = molecular target: T5, MAPK13 (Homo sapiens, UniProt O15264); experiment: DSF thermal shift assay; type: binding; details: MAPK13; inhibitor 10 μM, protein 2 μM; read-out: ΔTm
T5 construct: purchased in-house DSF (thermal shift) panel per Fedorov et al
T5 sequence (O15264 whole entry): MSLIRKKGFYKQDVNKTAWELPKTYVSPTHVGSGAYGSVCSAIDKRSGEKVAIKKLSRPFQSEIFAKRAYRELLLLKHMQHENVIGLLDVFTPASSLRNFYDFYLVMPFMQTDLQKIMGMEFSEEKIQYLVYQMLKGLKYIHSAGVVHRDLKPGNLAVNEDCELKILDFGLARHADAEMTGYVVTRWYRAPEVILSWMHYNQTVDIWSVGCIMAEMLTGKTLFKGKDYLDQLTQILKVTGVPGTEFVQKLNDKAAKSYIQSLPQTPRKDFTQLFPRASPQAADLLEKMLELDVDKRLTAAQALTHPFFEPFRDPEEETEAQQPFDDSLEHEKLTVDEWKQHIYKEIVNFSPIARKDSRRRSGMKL
Description: as §1

STK3 = molecular target: T6, STK3 (Homo sapiens, UniProt Q13188); experiment: DSF thermal shift assay; type: binding; details: STK3; inhibitor 10 μM, protein 2 μM; read-out: ΔTm
T6 construct: purchased in-house DSF (thermal shift) panel per Fedorov et al
Description: as §1

CDC42BPA = molecular target: T7, CDC42BPA (Homo sapiens, UniProt Q5VT25); experiment: DSF thermal shift assay; type: binding; details: CDC42BPA; inhibitor 10 μM, protein 2 μM; read-out: ΔTm
T7 construct: purchased in-house DSF (thermal shift) panel per Fedorov et al
Description: as §1

EPHA7 = molecular target: T8, EPHA7 (Homo sapiens, UniProt Q15375); experiment: DSF thermal shift assay; type: binding; details: EPHA7; inhibitor 10 μM, protein 2 μM; read-out: ΔTm
T8 construct: purchased in-house DSF (thermal shift) panel per Fedorov et al
T8 sequence (Q15375 28-998): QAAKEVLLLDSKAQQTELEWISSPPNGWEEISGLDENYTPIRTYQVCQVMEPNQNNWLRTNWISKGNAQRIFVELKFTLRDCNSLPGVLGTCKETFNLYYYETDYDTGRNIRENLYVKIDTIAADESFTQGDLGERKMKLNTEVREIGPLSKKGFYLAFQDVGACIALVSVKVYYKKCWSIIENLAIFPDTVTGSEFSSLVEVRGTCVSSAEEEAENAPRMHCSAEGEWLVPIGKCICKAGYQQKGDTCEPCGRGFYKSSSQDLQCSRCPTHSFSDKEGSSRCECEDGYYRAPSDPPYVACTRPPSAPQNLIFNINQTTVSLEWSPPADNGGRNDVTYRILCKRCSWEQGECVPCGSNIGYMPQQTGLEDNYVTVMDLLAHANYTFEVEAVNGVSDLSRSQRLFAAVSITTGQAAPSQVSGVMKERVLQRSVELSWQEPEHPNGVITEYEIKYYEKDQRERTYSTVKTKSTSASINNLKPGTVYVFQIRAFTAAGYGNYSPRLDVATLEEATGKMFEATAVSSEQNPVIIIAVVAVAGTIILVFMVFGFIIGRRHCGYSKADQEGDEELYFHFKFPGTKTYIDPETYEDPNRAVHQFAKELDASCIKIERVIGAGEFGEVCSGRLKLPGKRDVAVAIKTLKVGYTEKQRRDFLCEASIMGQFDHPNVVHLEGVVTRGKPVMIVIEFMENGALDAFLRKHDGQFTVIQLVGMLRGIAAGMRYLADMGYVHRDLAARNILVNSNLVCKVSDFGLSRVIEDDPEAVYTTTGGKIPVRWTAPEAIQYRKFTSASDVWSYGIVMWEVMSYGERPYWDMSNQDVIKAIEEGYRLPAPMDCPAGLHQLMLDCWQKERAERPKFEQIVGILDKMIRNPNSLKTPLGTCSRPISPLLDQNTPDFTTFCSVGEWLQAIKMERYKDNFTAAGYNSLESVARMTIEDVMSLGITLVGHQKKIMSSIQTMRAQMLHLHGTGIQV
Description: as §1

MERTK = molecular target: T9, MERTK (Homo sapiens, UniProt Q12866); experiment: DSF thermal shift assay; type: binding; details: MERTK; inhibitor 10 μM, protein 2 μM; read-out: ΔTm
T9 construct: purchased in-house DSF (thermal shift) panel per Fedorov et al
T9 sequence (Q12866 21-999): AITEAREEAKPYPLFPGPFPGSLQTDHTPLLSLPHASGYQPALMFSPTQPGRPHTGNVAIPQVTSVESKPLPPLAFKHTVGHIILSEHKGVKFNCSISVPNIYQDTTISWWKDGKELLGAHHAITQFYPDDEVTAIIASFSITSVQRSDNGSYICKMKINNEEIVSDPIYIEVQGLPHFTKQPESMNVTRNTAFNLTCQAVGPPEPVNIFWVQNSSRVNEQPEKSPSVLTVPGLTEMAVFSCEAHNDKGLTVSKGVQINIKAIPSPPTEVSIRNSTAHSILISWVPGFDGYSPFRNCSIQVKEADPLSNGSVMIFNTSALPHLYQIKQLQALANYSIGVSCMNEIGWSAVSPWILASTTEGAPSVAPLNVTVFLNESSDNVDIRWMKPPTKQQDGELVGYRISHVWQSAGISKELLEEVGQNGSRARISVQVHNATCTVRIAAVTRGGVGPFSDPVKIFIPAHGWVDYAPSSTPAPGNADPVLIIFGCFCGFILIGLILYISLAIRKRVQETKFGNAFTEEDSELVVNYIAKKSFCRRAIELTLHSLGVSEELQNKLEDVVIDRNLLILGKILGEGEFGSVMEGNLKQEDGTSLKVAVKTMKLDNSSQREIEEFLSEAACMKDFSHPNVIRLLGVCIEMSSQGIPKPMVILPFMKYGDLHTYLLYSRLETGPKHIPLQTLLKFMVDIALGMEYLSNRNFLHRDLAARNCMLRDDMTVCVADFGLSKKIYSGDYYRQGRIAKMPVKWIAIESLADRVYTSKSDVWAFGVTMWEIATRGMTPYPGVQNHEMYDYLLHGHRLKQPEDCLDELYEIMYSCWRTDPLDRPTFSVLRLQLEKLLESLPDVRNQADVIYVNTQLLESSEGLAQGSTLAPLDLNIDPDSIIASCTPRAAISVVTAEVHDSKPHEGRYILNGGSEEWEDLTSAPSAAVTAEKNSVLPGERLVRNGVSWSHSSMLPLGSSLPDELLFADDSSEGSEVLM
Description: as §1

OSR1 = molecular target: T10, OSR1 (Homo sapiens, UniProt O95747); experiment: DSF thermal shift assay; type: binding; details: OSR1; inhibitor 10 μM, protein 2 μM; read-out: ΔTm
T10 construct: purchased in-house DSF (thermal shift) panel per Fedorov et al
Description: as §1

DAPK1 = molecular target: T11, DAPK1 (Homo sapiens, UniProt P53355); experiment: DSF thermal shift assay; type: binding; details: DAPK1; inhibitor 10 μM, protein 2 μM; read-out: ΔTm
T11 construct: purchased in-house DSF (thermal shift) panel per Fedorov et al
Description: as §1

S6K2 = molecular target: T12, S6K2 (Homo sapiens, UniProt Q9UBS0); experiment: HotSpot kinase assay (Reaction Biology); type: biochemical; details: apparent IC50; five-point; compound 2 triplicate, ± standard deviation
T12 construct: purchased Reaction Biology Corp
Description: (§2) The provided IC50 values were measured using the HotSpot^TM Kinase Profiling assay and conducted at Reaction Biology Corp. in their facilities in Malvern, PA, USA.

FGFR4 = molecular target: T13, FGFR4 (Homo sapiens, UniProt P22455); experiment: HotSpot kinase assay (Reaction Biology); type: biochemical; details: five-point singlicate
T13 construct: purchased Reaction Biology Corp
T13 sequence (P22455 22-802): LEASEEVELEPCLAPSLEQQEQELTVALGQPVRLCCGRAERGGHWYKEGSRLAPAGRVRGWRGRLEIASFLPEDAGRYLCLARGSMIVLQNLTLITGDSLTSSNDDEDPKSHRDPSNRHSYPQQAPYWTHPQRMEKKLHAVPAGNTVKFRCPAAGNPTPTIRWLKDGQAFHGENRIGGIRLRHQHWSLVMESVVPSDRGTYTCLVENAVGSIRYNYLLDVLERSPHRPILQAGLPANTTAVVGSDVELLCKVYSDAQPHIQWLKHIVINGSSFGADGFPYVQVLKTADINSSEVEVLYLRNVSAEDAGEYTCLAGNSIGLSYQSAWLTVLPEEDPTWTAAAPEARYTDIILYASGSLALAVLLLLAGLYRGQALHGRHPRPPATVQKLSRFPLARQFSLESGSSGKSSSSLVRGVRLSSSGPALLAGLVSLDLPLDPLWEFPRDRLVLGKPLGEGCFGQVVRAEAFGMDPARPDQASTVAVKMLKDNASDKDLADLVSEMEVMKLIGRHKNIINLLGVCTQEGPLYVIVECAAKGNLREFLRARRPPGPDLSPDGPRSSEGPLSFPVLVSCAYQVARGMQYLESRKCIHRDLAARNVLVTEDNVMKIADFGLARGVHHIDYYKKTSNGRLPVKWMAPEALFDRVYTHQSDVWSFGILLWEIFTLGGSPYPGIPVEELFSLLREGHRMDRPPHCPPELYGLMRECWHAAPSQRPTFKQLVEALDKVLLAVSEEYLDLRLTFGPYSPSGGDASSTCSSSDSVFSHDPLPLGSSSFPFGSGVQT
Description: as §2

MAPKAPK2 = molecular target: T14, MAPKAPK2 (Homo sapiens, UniProt P49137); experiment: HotSpot kinase assay (Reaction Biology); type: biochemical; details: five-point singlicate, max 5 μM
T14 construct: purchased in-house DSF (thermal shift) panel per Fedorov et al; IC50 follow-up at Reaction Biology Corp
T14 sequence (P49137 whole entry): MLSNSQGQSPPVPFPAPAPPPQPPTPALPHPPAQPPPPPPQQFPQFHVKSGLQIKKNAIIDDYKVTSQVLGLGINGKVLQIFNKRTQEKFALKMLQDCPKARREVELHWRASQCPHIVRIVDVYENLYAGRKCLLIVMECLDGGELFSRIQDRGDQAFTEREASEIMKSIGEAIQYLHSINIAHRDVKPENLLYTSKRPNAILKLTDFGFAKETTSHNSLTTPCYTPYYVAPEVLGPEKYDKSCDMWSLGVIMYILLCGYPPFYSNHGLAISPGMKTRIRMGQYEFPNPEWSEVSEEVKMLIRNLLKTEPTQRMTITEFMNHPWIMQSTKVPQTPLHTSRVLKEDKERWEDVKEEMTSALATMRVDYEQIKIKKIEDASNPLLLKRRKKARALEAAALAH
Description: as §2

TTK = molecular target: T15, TTK (Homo sapiens, UniProt P33981); experiment: HotSpot kinase assay (Reaction Biology); type: biochemical; details: five-point singlicate, max 5 μM
T15 construct: purchased Reaction Biology Corp
Description: as §2

MAPKAPK3 = molecular target: T16, MAPKAPK3 (Homo sapiens, UniProt Q16644); experiment: HotSpot kinase assay (Reaction Biology); type: biochemical; details: five-point singlicate, max 5 μM
T16 construct: purchased Reaction Biology Corp
T16 sequence (Q16644 whole entry): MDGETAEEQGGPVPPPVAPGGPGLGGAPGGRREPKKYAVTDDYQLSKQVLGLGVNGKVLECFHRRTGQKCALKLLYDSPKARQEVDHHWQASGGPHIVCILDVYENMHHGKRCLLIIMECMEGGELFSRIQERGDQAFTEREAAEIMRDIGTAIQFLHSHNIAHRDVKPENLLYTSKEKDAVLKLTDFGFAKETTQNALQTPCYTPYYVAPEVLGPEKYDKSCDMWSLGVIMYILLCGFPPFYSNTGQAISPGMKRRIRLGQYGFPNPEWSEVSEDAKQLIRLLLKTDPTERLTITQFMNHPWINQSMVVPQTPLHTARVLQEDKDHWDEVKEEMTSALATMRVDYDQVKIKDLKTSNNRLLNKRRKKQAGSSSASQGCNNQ
Description: as §2

S6K1 = molecular target: T17, S6K1 (Homo sapiens, UniProt P23443); experiment: HotSpot kinase assay (Reaction Biology); type: biochemical
T17 construct: purchased Reaction Biology Corp
T17 sequence (P23443 whole entry): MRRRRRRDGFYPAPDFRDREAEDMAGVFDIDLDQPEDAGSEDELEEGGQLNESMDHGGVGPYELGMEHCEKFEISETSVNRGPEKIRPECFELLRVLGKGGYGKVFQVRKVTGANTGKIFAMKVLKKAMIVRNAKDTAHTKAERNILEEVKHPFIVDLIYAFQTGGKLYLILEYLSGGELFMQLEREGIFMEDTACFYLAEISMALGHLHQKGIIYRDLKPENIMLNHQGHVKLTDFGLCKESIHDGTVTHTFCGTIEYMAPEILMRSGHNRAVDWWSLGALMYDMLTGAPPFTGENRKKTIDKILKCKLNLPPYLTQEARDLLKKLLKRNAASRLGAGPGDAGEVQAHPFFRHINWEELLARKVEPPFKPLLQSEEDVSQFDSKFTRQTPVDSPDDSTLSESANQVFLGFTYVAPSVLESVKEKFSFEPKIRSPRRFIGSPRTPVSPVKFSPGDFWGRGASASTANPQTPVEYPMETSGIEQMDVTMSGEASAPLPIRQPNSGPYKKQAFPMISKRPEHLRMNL
Description: as §2

CCc1cnc(Nc2nc(Cl)ccc2[N+](=O)[O-])nc1N1CCN(Cc2nc3cc(C(F)(F)F)ccc3[nH]2)CC1 [Compound 2]
ΔTm at 10 µM (STK39): 0.6 °C | ΔTm at 10 µM (WNK1): -0.9 °C | ΔTm at 10 µM (MAPK6): 0.2 °C | ΔTm at 10 µM (CAMKK2): 0.6 °C | ΔTm at 10 µM (MAPK13): -0.6 °C | ΔTm at 10 µM (STK3): -0.2 °C | ΔTm at 10 µM (CDC42BPA): 0.3 °C | ΔTm at 10 µM (EPHA7): 0.5 °C | ΔTm at 10 µM (MERTK): -0.1 °C | ΔTm at 10 µM (OSR1): 0.4 °C | ΔTm at 10 µM (DAPK1): -0.5 °C | IC50 (S6K2): 22 ± 1.6 nM | IC50 (FGFR4): 216 nM | IC50 (MAPKAPK2): > 5000 nM | IC50 (TTK): > 5000 nM | IC50 (MAPKAPK3): > 5000 nM | IC50 (S6K1; five-point singlicate, max 5 μM): > 5000 nM | activity for S6K1 (S6K1; maximum tested compound concentration of 5 μM): inactive
